Patent US5312816A, “Method of combatting osteoporosis in mammalian subjects, utilizing organic boron compounds” (priority 1993, dated 1994)
Like-named read-outs stand apart in the source and are kept apart here.

Legend:
Cf1 male mice [1] = assay: Anti-inflammatory screen, Winter's test, 2% carrageenan hind foot; type: in vivo; conditions: for Anti-inflammatory: Table 1, drugs 8 or 10 mg/kg I.P. 2X, Indomethacin 10 mg/kg
Protocol: Anti-inflammatory Screen- Cf1 - male mice-Winter's Test 2% carrageenan S.C. plantar surface of hind foot, drugs administered @8 or 10 mg/kg I.P. 2X
Winter, C.A., et al, Proc. Soc.

Cathepsin [2] = target: T1, Cathepsin (Rattus norvegicus, UniProt P24268); assay: Rat PMNs cathepsin activity; type: cell-based; conditions: pH 5; 5 × 10^-6 M, N=6; read-out: Rat PMNs Cathep.
T1 construct: azocasein assay pH 5.0
Description: (§1) 2. PMNs-polymorphonuclear neutrophils-rat peritoneal cavity 0.5% oyster glycogen.
(§2) 2. Acid Cathepsin D -azocasein-pH 5.0, hydrolytic azo-peptide produce 366 nm.

Acid phosphatase [3] = assay: Mouse hepatic lysosomal acid phosphatase activity; type: biochemical; conditions: for Mouse Liver Acid Phosph.: 5 × 10^-6 M, N=6, 5 µM
Description: (§3) 1. Cf1 male mouse hepatic 10% homogenates in 0.25M sucrose+0.001MEDTA,pH 7.2.
(§4) Lysosomal Enzymes - free and total [triton X-100].
(§5) 1. Acid phosphatase -beta glycerol-3-phosphate, pH 5.0, released IP 720 nm.
Acid phosphatase activity -

Sprague Dawley male rats [4] = assay: Anti-pleurisy screen, Evans blue + carrageenan; type: in vivo; conditions: Table 1
Phosphorus = assay: Serum and urine inorganic phosphorus levels in vivo; conditions: Cf1 male mice, 8 mg/kg/day I.P. 14 days, N=6
Cathepsin [5] = assay: Human leukocyte cathepsin; type: cell-based; conditions: read-out: Cathepsin IC50; Table XII; human leukocytes, 60 min incubation
Description: 5. Human peripheral leukocytes, RPMI-1788
as §2

Elastase [6] = assay: Mouse macrophage elastase activity; type: cell-based
Acid phosphatase [7] = assay: Human osteoporosis fibroblasts acid phosphatase activity; type: cell-based; conditions: read-out: Acid Phosphatase IC50; Table X; human osteoporosis fibroblasts
Description: as §5

Aryl sulphatase [8] = assay: Human osteoporosis fibroblasts aryl sulphatase activity; type: cell-based; conditions: read-out: Aryl Sulphatase IC50; Table X; human osteoporosis fibroblasts
Description: 3. Aryl sulphatase- p-nitrocatechol sulfate, pH
5. 8 p-nitro-catechol product 510 nm.

Acid phosphatase [9] = assay: Mouse macrophage acid phosphatase activity; type: cell-based
Trypsin [10] = assay: Mouse macrophage trypsin (BAEE) activity; type: cell-based
Calcium = assay: Serum and urine calcium levels in vivo; conditions: Cf1 male mice, 8 mg/kg/day I.P. 14 days, N=6
Aryl sulphatase [11] = assay: Mouse macrophage aryl sulphatase activity; type: cell-based
in vivo = conditions: mouse, Table 1, N=6
Protocol: Amine borane compounds (0 to 100 mg/kg) were administered to CF1 male mice as a single injection with six mice for each dosage. Mice were weighed daily and the number of deaths was recorded each day for a 14 day period. The LD50 value was determined by the procedure of S.C. Gad and C.S. Weil, "Statistics for Toxicologists" in Principles and Methods of Toxicology, A.W. Hayes, Ed., 2nd Edition, P 435-483 Raven Press, New York 1982.

Acid phosphatase [12] = assay: Rat PMNs acid phosphatase activity; type: cell-based; conditions: 5 × 10^-6 M, N=6; 5 µM
Description: as §1, §5

[13] = test system: Prostaglandin cyclooxygenase; assay: Mouse macrophage prostaglandin cyclooxygenase activity; type: cell-based
Description: (§6) 3. Mouse macrophages J774A.1 BALB/c
(§7) Prostaglandin synthetase purified beef seminal vesicle ^3 H arachidonic acid (86.2 Ci/mmol), tlc separation.

Sprague Dawley male rats [14] = assay: Chronic adjuvant arthritis screen, Mycobacterium butyricum; type: in vivo; conditions: Table 1; Indomethacin 10 mg/kg
Sprague Dawley Rats = assay: Anti-inflammatory activity in Sprague Dawley rats; type: in vivo; conditions: Table IV; 8 mg/kg I.P.
cAMP = assay: PMNs cAMP levels, Gilman's radioimmune assay; type: cell-based, rat; conditions: 5 × 10^-6 M, N=6
Description: as §1
cAMP levels Gilman's radioimmune assay. ^3 H(G)Cyclic-3', 5'-adenosine monophosphate.

Trypsin [15] = assay: Human osteoporosis fibroblasts trypsin (BAEE) activity; type: cell-based; conditions: read-out: Trypsin BAEE IC50; Table XI; human osteoporosis fibroblasts, 60 min incubation
Description: 1. Trypsin- N-benzoyl-L-arginine ethyl ester pH 8.0, hydrolytic product 253 nm.

[16] = test system: Hepatic oxidative phosphorylation; assay: Hepatic oxidative phosphorylation, Gilson oxygraph; type: biochemical, mouse; conditions: 10^-6 M; 1 µM
Description: as §3

Hydroxyproline = assay: Serum and urine hydroxyproline levels in vivo; conditions: Cf1 male mice, 8 mg/kg/day I.P. 14 days, N=6
Cf1 male mice [17] = assay: Writhing reflex, 0.6% acetic acid; type: in vivo; conditions: Table 1; Indomethacin 10 mg/kg
Protocol: Writhing reflex- Cf1 -male mice- 0.6% acetic acid I.P. drugs administered @20 mg/kg/ I.P. 20 min. later - the # of stretches/10 min.
Hendershot, L.C., et al, J.

Prostaglandin synthetase = target: T2, Prostaglandin synthetase (Bos taurus, UniProt O62664); assay: Prostaglandin synthetase (cyclooxygenase), purified beef seminal vesicle; type: biochemical
T2 construct: Prostaglandin synthetase purified beef seminal vesicle; from tissue
T2 sequence (O62664 25-600): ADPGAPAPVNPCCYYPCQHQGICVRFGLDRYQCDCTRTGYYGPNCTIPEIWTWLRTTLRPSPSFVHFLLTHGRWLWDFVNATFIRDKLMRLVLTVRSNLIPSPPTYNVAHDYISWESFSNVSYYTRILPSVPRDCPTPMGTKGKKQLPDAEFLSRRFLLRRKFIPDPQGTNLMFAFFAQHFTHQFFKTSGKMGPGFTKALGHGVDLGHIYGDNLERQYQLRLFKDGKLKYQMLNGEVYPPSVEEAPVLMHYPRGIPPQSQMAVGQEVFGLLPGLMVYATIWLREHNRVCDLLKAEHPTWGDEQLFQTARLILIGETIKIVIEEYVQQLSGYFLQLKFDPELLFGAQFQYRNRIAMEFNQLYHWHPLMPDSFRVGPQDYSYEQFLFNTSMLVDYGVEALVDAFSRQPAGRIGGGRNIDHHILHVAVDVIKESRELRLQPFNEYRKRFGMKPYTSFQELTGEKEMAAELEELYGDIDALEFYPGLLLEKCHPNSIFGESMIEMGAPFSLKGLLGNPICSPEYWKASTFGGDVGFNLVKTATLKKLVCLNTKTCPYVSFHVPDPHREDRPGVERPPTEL
Description: as §7

Elastase [18] = assay: Human osteoporosis fibroblasts elastase activity; type: cell-based; conditions: read-out: Elastase IC50; Table XI; human osteoporosis fibroblasts, 60 min incubation
Description: 2. Elastase- N-succinyl-L-alanyl-L-alanine-p-nitroanilide, pH 8.0, p-nitro anilide 410 nm.

Cathepsin D [19] = target: T3, Cathepsin D (Homo sapiens, UniProt P07339); assay: Human osteoporosis fibroblasts cathepsin D (azo-casein) activity; type: cell-based; conditions: read-out: Cathepsin D IC50; Table X; human osteoporosis fibroblasts, DMEM +10% FCS + P/S
T3 construct: azocasein assay pH 5.0
Description: Osteoporosis Human Fibroblast-CRL-1140, Be SA1

Cf1 male mice [20] = assay: Writhing reflex, 0.6% acetic acid; type: in vivo; design: response vs control in vivo: dose or concentration left out as unconfirmed; conditions: for response vs control in vivo: Mus musculus, ip, read-out: Writhing Reflex Cf1 Mice
Cathepsin D [21] = target: T4, Cathepsin D (Mus musculus, UniProt P18242); assay: Mouse hepatic lysosomal cathepsin D activity; type: biochemical
T4 construct: azocasein assay pH 5.0
Description: as §3, §4, §2
Cathepsin azo casein activity -

[22] = test system: Prostaglandin cyclooxygenase; assay: Human osteoporosis fibroblasts prostaglandin cyclooxygenase activity; type: cell-based; conditions: read-out: Prostaglandin Cyclooxygense IC50, Table XI, 60 min incubation
Cathepsin D [23] = target: T4, Cathepsin D; assay: Mouse macrophage cathepsin D activity; type: cell-based; conditions: Table VII; mouse macrophage cultured cells, DMEM +10% FCS +P/S, 60 min incubation; read-out: Cathepsin D IC50
Description: as §6, §2

[24] = target: Clostridium histolyticum Collagenase Type II; assay: Commercial collagenase type II; type: biochemical; conditions: Table IX; commercial enzyme preparation
Description: 4. Collagenase II, Clostridium histolyticum, cartilage collagen.

[25] = read-out: Elastase IC50; Table VIII; mouse macrophages, 60 min incubation
[26] = read-out: Acid Phosphatase IC50; Table VII; mouse macrophage cultured cells, 60 min incubation
[27] = read-out: Trypsin BAEE IC50; Table VIII; mouse macrophages, 60 min incubation
[28] = read-out: Aryl Sulphatase IC50; Table VII; mouse macrophage cultured cells, 60 min incubation
[29] = read-out: Prostaglandin Cyclooxygenase IC50; Table VIII; mouse macrophages, 60 min incubation
[30] = pH 5, read-out: Mouse Liver Cathep.

T4 sequence (P18242 65-410): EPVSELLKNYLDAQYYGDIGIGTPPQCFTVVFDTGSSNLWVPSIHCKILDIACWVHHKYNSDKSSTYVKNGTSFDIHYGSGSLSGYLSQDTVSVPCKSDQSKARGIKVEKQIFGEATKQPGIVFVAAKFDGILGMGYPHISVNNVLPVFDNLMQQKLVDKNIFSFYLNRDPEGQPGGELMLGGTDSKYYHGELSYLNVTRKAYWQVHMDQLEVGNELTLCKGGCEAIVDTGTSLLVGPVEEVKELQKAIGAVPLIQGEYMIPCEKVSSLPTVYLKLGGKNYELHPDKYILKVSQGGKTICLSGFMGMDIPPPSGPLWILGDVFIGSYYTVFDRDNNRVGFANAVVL
T1 sequence (P24268 65-407): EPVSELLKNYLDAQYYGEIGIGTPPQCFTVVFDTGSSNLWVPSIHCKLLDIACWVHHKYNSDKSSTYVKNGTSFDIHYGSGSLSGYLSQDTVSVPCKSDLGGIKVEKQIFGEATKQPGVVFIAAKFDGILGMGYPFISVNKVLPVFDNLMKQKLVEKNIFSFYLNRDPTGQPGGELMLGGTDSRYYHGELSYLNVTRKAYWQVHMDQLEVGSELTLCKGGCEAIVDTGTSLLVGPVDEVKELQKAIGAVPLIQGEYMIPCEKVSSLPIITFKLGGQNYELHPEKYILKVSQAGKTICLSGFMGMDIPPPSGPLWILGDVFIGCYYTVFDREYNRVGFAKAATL
T3 sequence (P07339 65-412): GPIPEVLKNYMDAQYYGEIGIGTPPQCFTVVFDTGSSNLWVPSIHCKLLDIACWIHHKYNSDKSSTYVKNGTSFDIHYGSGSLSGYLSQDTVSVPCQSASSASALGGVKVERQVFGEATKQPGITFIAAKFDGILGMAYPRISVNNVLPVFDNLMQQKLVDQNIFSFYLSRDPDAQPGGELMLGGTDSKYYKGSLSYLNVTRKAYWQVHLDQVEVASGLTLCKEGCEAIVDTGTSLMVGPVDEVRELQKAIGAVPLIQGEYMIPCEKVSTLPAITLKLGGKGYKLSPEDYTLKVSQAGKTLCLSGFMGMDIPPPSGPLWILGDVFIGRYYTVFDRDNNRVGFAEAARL

Row | SMILES | Anti-inflammatory (Cf1 male mice [1]) [% Control] | activity at 5 µM (Cathepsin [2]) [%] | Mouse Liver Acid Phosph. (Acid phosphatase [3]) | IC50 (Cathepsin [5]) [µM] | IC50 (Elastase [6]; [25]) [µM] | IC50 (Acid phosphatase [9]; [26]) [µM] | IC50 (Trypsin [10]; [27]) [µM] | IC50 (Aryl sulphatase [11]; [28]) [µM] | LD50 at 336 h (in vivo) [mg/kg] | Rat PMNs Acid Phoph. (Acid phosphatase [12]) | IC50 [13, 29] [µM] | Anti-arthritic (Sprague Dawley male rats [14]) [% Control] | Anti-Inflammatory Activity Sprague Dawley Rats (Sprague Dawley Rats) [% Control] | PMNs cAMP (cAMP) [% Control] | IC50 (Trypsin [15]) [µM] | Hepatic Oxidative Phosphorylation Succinate State 3 [16] | Hepatic Oxidative Phosphorylation Succinate State 4 [16] | Hepatic Oxidative Phosphorylation alpha-Ketoglutrate State 3 [16] | Hepatic Oxidative Phosphorylation alpha-Ketoglutrate State 4 [16] | Writhing (Cf1 male mice [17]) [% Control] | further results
1 | C[N+](C)(C)[BH2-]C#N [Compound 2, Trimethylamine-cyanoborane] | 42 | 4 | 69 + 4 % Control | 77.1 | 1.35 | 1.05 | 1.41 | 9.29 | 70 | 35 + 5 % Control | 5.88 | 4 | 65 | 245 | 3.98 | 51 + 20 % Control | 133 + 20 % Control | 41 + 9 % Control | 85 + 21 % Control | 18 | IC50 (Acid phosphatase [3]; Table V, mouse hepatic, 60 min incubation): 3.51 µM; Anti-pleurisy (Sprague Dawley male rats [4]): 65 % Control; Phosphorus serum (Phosphorus): 81.6 % Control; Phosphorus urine (Phosphorus): 39.6 % Control; IC50 (Acid phosphatase [7]): 15.9 µM; IC50 (Aryl sulphatase [8]): 8.87 µM; Calcium serum (Calcium): 109.7 % Control; Calcium urine (Calcium): 50.8 % Control; Hydroxyproline serum (Hydroxyproline): 71.7 % Control; Hydroxyproline urine (Hydroxyproline): 42.5 % Control; IC50 (Prostaglandin synthetase): 5.9 µM; IC50 (Elastase [18]): 3.29 µM; IC50 (Cathepsin D [19]): 2.01 µM; response vs control in vivo (Cf1 male mice [20]): 18%; activity at 5 µM (Cathepsin D [21]; [30]): 6%; IC50 (Cathepsin D [21]; read-out: Cathepsin D IC50, Table V, mouse hepatic, 60 min incubation): 0.72 µM; IC50 [22]: 4.26 µM
2 | COc1ccc2c(c1)c(CC(=O)O)c(C)n2C(=O)c1ccc(Cl)cc1 [Indomethacin, reference compound] | 22 | 100 | 86 + 4 % Control | – | – | – | – | – | 28 | 100 + 2 % Control | – | 27 | – | 80 | – | – | – | – | – | 43 | activity at 5 µM (Cathepsin D [21]; [30]): 67%
3 | C[N+](C)(C)[BH2-]C(=O)O [Compound 3, Trimethylamine-carboxyborane] | 79 | 14 | 82 + 5 % Control | – | – | – | – | – | 1800 | 50 + 3 % Control | – | 53 | 59 | 99 | – | 63 + 4 % Control | 122 + 14 % Control | 70 + 20 % Control | 127 + 22 % Control | 29 | Anti-Inflammatory Activity Mice (Cf1 male mice [1]; Table IV, 8 mg/kg I.P.): 58 % Control; IC50 (Elastase [6]; Table VIII; mouse macrophages, 60 min incubation; read-out: Elastase IC50): 2.14 µM; IC50 (Acid phosphatase [9]; Table VII; mouse macrophage cultured cells, 60 min incubation; read-out: Acid Phosphatase IC50): 1.04 µM; IC50 (Trypsin [10]; Table VIII; mouse macrophages, 60 min incubation; read-out: Trypsin BAEE IC50): 2.78 µM; IC50 (Aryl sulphatase [11]; Table VII; mouse macrophage cultured cells, 60 min incubation; read-out: Aryl Sulphatase IC50): 7.42 µM; IC50 ([13]; Table VIII; mouse macrophages, 60 min incubation; read-out: Prostaglandin Cyclooxygenase IC50): 2.81 µM; IC50 (Cathepsin D [23]): 6.71 µM; Writhing Reflex Cf1 Mice (Cf1 male mice [20]; Table IV, 8 mg/kg I.P.): 11.5 % Control; activity at 5 µM (Cathepsin D [21]; pH 5, 5 × 10^-6 M, N=6, read-out: Mouse Liver Cathep.): 56%
4 | C[B-](C#N)(C#N)[N+](C)(C)C [Compound 16, Trimethylamine-methyldicyanoborane] | – | – | – | 65.2 | 2.02 | 1.1 | 1.62 | 8.48 | – | – | 3.05 | – | – | – | 3.35 | – | – | – | – | – | IC50 [24]: 110 µM; IC50 (Elastase [18]): 3.6 µM; response vs control in vivo (Cf1 male mice [20]): 33.9%; IC50 [22]: 9.29 µM
